Data as given in patent US20090264382A1, “Methods for Treating Hematopoietic Neoplasms” (priority 2007, published 2009).
Where a SMILES comes first, the peptide text is derived from it. The star is where a group is joined. Cbz = O=C(OCc1ccccc1)*; CH2F = FC*

Columns and labels:
Format in all cases: cell-based, human
HL60 cells = experiment: Reversal of CA4P-induced apoptosis by caspase inhibitors and ROS scavenger, Annexin V/PI
Experimental: Leukemic cells were treated with or without CA4P for 48 hours in presence of caspase inhibitor Q-VD and the percentage of apoptotic leukemic cells was determined by Annexin V and propidium iodide staining using flow cytometry. Percentage of alive Annexin V(−)/PI(−) cells was plotted.
HL-60 cells were treated with or without CA4P for 48 hours in presence of another ROS scavenger, deferoxamine (DFX), and caspase inhibitor Q-VD and the percentage of apoptotic leukemic cells was determined by Annexin V and propidium iodide staining using flow cytometry.

caspase-3 = experiment: CA4P-induced caspase-3 activation
[1] = system: leukemic cells (HL60, R81, U937, KG1a, THP-1); experiment: Protection from CA4P-mediated cell death by ascorbic acid, trypan blue exclusion; conditions: CA4P 5 or 10 nM, 48 hours
Experimental: Leukemic cells were treated with 5 nM (HL60, R81, U937) or 10 nM (KG1a, THP-1) for 48 hours with the ascorbic acid concentrations indicated and viable cells determined by trypan blue exclusion. Results of three experiments in triplicate are expressed as percentage of viable cells compared to control±SEM (*p<0.05 as compared with CA4P-untreated cells; n=3).

leukemic cells = experiment: Intracellular ROS detection with H2DCFDA
Experimental: Intracellular ROS were detected as previously described (Krejsa & Schieven, Methods Mol Biol 99:35-47 (2000)). Briefly, leukemic cells were loaded with 2 μM H2DCFDA (Molecular Probes) in assay buffer (RPMI with 10 mM HEPES) for 30 min. at 37° C. and mean fluorescent intensity was measured by flow cytometry. Results are shown from triplicate measurements (±SEM) and are representative of three independent experiments (*p<0.05 as compared with untreated cells; n=3).

KG1a leukemic cells = experiment: Release of nuclear HMG1 protein into supernatant (necrosis marker), Western blot; conditions: 24 hours, CA4P 20 mM, staurosporine 100 μM as printed
Experimental: Nonetheless, to rule out the possibility that CA4P may trigger necrotic cell death in subsets of the leukemic cells, the release of nuclear HMG1 protein into the culture supernatant, which has been described as a sensitive and highly specific marker for necrotic cell death (Scaffidi, et al. 2002. Nature 418, 191-5), was quantified. For detection of HMG1 protein, KG1a leukemic cells (1×106 in 2 ml X-vivo/5% FBS) were incubated with 100 μM staurosporine to induce apoptosis, freeze-thawed three times to induce necrosis, or treated with 20 mM CA4P for 24 hours. Cells were spun down, pelleted and the supernatant subjected to Western blot for HMG135.

CC(=O)N(O)CCCCCNC(=O)CCC(=O)N(O)CCCCCNC(=O)CCC(=O)N(O)CCCCCN [DFX, deferoxamine]
inhibition of CA4P-induced cell death (HL60 cells; HL60, DFX together with caspase inhibitor Q-VD, 48 hours): up to 71%

CC(C)[C@H](NC(=O)c1ccc2ccccc2n1)C(=O)N[C@@H](CC(=O)O)C(=O)COc1c(F)cccc1F [Q-VD, Q-VD-OPh]
CA4P induced apoptosis blocked (HL60 cells; HL60 cells, 48 hours, Annexin V/PI): 33%
CA4P-induced caspase-3 activation (caspase-3): blocked

COC(=O)C[C@H](NC(=O)[C@H](C)NC(=O)[C@@H](NC(=O)OCc1ccccc1)C(C)C)C(=O)CF [Z-VAD-fmk] (Cbz-Val-Ala-Asp(OMe)-CH2F)
effect on CA4P-induced apoptosis (HL60 cells; data not shown): no effect
CA4P-induced caspase-3 activation (caspase-3): blocked

O=C1O[C@H]([C@@H](O)CO)C(O)=C1O [ascorbic acid, reference compound]
effect of co-incubation on CA4P-mediated cell death [1]: partial decrease in CA4P-mediated cell death
effect on CA4P-induced ROS accumulation (leukemic cells): reversal of ROS accumulation

CN[C@@H]1C[C@H]2O[C@@](C)([C@@H]1OC)n1c3ccccc3c3c4c(c5c6ccccc6n2c5c31)C(=O)NC4 [staurosporine, reference compound]
release of nuclear HMG1 protein into the supernatant (KG1a leukemic cells): not
